In ChEMBL document CHEMBL1201862, “PubChem BioAssay data set” (2004):
Active and inactive are the calls of the source.

Key:
[1] = biological target: 72 kDa type IV collagenase (Homo sapiens, UniProt P08253); experiment: Dose Response validation of uHTS RPN11 inhibitor hits using a MMP-2 Fluorescence assay.; type: functional
[2] = inhibitors of firefly luciferase expression or activity, dose response, H4 neuroglioma cells, luminescence (AID 1990); type: functional, cell-based
[3] = biological target: T1, Small ubiquitin-related modifier 1 (Homo sapiens, UniProt P63165); experiment: inhibitors of SUMO1 partner interactions, dose response, biochemical, FRET (AID 624383); type: functional; conditions: read-out: IC50_Mean
[4] = biological target: T2, Caspase-6 (Homo sapiens, UniProt P55212); experiment: human caspase-6 inhibitors, dose response, biochemical, VEID-R110 fluorescence, cherry-pick (AID 720632)
T2 sequence (P55212 whole entry): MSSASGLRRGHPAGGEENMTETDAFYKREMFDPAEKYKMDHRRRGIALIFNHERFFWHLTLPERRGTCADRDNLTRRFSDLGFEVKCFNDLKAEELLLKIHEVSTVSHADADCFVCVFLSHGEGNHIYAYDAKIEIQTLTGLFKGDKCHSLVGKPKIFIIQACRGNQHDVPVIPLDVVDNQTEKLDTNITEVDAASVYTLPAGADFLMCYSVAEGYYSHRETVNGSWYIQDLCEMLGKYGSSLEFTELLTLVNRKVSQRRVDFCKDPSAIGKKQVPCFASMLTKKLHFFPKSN

[5] = inhibitors of SNCA 5'UTR-driven reporter translation, confirmation, H4 neuroglioma cells, luminescence (AID 1988); type: functional, cell-based
[6] = biological target: T3, Short transient receptor potential channel 4 (Mus musculus, UniProt Q9QUQ5); experiment: mouse TRPC4 channel activators, dose response, cell-based, HEK293 TRPC4/mu-opioid, Fluo-4 calcium (AID 434937); type: functional
T3 sequence (Q9QUQ5 whole entry): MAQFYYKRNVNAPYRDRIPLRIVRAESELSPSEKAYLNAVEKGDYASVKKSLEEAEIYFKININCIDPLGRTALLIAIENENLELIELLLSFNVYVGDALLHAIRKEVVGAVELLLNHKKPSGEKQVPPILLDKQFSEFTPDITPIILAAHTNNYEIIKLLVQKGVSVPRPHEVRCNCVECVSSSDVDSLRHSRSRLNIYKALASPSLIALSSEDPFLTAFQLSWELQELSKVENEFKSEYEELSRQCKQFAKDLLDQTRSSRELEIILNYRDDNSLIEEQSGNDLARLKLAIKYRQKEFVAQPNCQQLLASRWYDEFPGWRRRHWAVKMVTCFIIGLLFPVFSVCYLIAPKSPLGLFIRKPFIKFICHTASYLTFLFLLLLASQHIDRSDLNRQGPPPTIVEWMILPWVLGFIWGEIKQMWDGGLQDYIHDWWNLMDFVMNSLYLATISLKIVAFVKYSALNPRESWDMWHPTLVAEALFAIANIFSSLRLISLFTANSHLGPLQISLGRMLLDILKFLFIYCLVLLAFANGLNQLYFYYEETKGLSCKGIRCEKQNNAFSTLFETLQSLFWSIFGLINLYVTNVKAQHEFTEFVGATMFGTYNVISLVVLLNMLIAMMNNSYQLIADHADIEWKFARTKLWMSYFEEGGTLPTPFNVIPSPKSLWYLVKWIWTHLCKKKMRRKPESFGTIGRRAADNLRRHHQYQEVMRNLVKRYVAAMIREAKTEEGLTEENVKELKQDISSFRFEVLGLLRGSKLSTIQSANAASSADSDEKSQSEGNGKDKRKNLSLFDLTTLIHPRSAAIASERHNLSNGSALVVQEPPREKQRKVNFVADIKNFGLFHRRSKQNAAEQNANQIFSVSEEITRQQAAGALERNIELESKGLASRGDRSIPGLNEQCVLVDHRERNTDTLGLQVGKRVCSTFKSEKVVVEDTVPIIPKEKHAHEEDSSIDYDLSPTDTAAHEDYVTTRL

[7] = system: Streptococcus sp. 'group A'; experiment: growth inhibition of control SK(-) GAS strain, dose response, counter-screen for streptokinase expression inhibitor project, luminescence, kanamycin, BacTiterGlo, confirmation (AID 1900); type: functional, organism-based
[8] = system: Streptococcus; experiment: Group A Streptococcus viability loss, dose response, counter-screen for streptokinase expression inhibitor project, luminescence, BacTiterGlo (AID 1915); type: functional, organism-based;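 further: potency for reduction of bacterial viability or growth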
[9] = C. albicans growth with fluconazole, confirmation, fluorescence, retest (AID 2467); type: functional, cell-based
[10] = biological target: 26S proteasome non-ATPase regulatory subunit 14 (Homo sapiens, UniProt O00487); experiment: inhibition of proteasome subunit RPN11 – biochemical, fluorescence polarization, uHTS hits, confirmation (AID 602368); type: functional
[11] = biological target: T4, Bcl-2-related protein A1 (Mus musculus, UniProt Q07440); type: functional;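 further: confirmatory dose–response counterscreen on Bfl-1, used to check hits from a UBC13 polyubiquitin inhibitor campaign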
T4 sequence (Q07440 whole entry): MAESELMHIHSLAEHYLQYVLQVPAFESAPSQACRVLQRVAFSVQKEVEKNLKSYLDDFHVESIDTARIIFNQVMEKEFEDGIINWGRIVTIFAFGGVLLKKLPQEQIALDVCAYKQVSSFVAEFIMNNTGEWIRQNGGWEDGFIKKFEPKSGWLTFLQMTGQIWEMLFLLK

[12] = biological target: T5, Ubiquitin-conjugating enzyme E2 N (Homo sapiens, UniProt P61088); type: functional
T5 sequence (P61088 whole entry): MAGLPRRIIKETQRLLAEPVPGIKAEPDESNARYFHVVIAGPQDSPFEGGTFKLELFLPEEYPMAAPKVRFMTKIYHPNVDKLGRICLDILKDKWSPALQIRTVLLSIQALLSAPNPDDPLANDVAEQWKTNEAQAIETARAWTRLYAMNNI

[13] = microbe, parasite or virus in culture; type: functional; conditions: Mycobacterium tuberculosis
[14] = biological target: T1, Small ubiquitin-related modifier 1; experiment: inhibitors of SUMO1 peptide binding, dose response, biochemical, fluorescence polarization, uHTS hits (AID 624382); type: functional; conditions: read-out: IC50_Mean

T1 sequence (P63165 whole entry): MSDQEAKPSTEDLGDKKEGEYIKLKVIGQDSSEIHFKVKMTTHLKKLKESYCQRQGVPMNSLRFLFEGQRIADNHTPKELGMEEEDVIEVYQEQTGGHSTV
72 kDa type IV collagenase, sequence (P08253 whole entry): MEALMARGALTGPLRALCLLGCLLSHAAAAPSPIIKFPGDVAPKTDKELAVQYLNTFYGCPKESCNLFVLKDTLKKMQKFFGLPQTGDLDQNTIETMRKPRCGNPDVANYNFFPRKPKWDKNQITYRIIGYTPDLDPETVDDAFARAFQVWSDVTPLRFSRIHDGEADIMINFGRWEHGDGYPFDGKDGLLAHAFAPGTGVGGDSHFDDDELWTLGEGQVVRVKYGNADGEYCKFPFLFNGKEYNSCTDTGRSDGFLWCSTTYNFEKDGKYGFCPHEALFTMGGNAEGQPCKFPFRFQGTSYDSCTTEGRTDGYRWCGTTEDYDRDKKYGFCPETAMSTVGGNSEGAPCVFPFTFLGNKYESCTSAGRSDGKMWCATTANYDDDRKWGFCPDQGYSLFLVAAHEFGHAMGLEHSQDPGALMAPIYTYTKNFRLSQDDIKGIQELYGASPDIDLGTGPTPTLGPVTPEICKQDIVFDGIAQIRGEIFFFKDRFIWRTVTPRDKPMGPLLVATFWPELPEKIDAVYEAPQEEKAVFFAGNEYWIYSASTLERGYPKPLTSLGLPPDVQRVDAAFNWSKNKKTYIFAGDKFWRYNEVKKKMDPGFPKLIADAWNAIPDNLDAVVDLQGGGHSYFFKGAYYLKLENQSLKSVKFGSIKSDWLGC
26S proteasome non-ATPase regulatory subunit 14, sequence (O00487 whole entry): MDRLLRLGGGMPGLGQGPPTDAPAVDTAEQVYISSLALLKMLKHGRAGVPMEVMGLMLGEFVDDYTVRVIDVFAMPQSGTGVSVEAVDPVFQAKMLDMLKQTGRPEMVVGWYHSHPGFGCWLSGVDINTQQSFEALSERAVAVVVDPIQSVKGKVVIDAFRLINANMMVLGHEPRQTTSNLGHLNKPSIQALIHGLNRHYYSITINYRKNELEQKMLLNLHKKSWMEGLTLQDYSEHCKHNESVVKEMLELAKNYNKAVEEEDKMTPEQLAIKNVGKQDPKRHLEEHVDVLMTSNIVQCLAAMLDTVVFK

With `N=C(N)N/N=C/c1ccc(N(c2ccccc2)c2ccccc2)cc1` the IC50 [1] was 66.3 µM (active), the EC50 [2] was 8.89 µM (active) and the IC50 [3] was 8.67 µM (active). The AC50 [4] was 10.1 µM (active), the EC50 [5] was 10.4 µM (active) and the EC50 [6] was 9.44 µM (active). The EC50 [7] was 2.39 µM (active), the EC50 [8] was 3.39 µM (active) and the EC50 [9] was 5.12 µM (active). For the same compound, the IC50 [10] was 18 µM (active), the IC50 [11] was 3.85 µM (active) and the IC50 [12] was 1.11 µM (active). For the same compound, the CC50 [13] was 6.42 µM (active) and the IC50 [14] was > 66.6 µM (inactive).
